Here are results for 19 compounds from patent US8906929B2, “Inhibitors of human immunodeficiency virus replication” (priority 2012, dated 2014).

As a reminder, the EC50 is the concentration that produces a half-maximal response.

For this assay, the system named is recombinant NL-Rluc virus. Put plainly: Inhibition of HIV replication (NL-RLuc virus in MT-2 cells, luciferase readout). The format is cell-based. The conditions noted are these: Human immunodeficiency virus 1, MT2, 120 h, 5 days of incubation, 10% FBS.
In the case of `Cc1ccc2c(c1F)-c1cccc(c1)-c1cc3nc(C)c([C@H](OC(C)(C)C)C(=O)O)c(n3n1)N1CCC(C)(CC1)OC/C=C\C[C@H](C)O2` [Example 69, (2S)-2-(tert-Butoxy)-2-[(22S,24Z)-16-fluoro-4,17,22,28-tetramethyl-21,27-dioxa-1,5,7,8-tetraazahexacyclo[26.2.2.1^6,^9.1^10,^14.0^2,^7.0^15,^20]tetratriaconta-2,4,6(34),8,10(33), 11, 13, 15 (20),16,18,24-undecaen-3-yl]acetic acid], the EC50 was 21 nM.

For the compound `Cc1ccc2c(c1F)-c1cccc(c1)-c1cc3nc(C)c([C@H](OC(C)(C)C)C(=O)O)c(n3n1)N1CCC(C)(CC1)OCCCC[C@H](C)O2` [Example 70, (2S)-2-(tert-Butoxy)-2-[(22S)-16-fluoro-4,17,22,28-tetramethyl-21,27-dioxa-1,5,7,8-tetraazahexacyclo[26.2.2.1^6,^9.1^10,^14.0^2,^7.0^15,^20]tetratriaconta-2,4, 6(34), 8, 10(33), 11, 13, 15(20),16,18-decaen-3-yl]acetic acid], the EC50 was 19 nM.

Consider `Cc1nc2cc3nn2c(c1[C@H](OC(C)(C)C)C(=O)O)N1CCC(C)(CC1)OCC=CC[C@H](C)Oc1ccc(C(N)=O)cc1-c1cccc-3c1` [Example 72, (2S)-2-(tert-Butoxy)-2-[(22S)-17-carbamoyl-4,22,27-trimethyl-21,26-dioxa-1,5,7,8-tetraazahexacyclo[25.2.2.1^6,^9.1^10,^14.0^2,^7.0^15,^20]tritriaconta-2,4, 6(33), 8, 10(32), 11, 13, 15(20),16,18,23-undecaen-3-yl]acetic acid], for which the EC50 stood at 15 nM.

As to `Cc1nc2cc3nn2c(c1[C@H](OC(C)(C)C)C(=O)O)N1CCC(C)(CC1)OCCCC[C@H](C)Oc1ccc(C#N)cc1-c1cccc-3c1` [Example 73, (2S)-2-(tert-Butoxy)-2-[(22S)-17-cyano-4,22,28-trimethyl-21,27-dioxa-1,5,7,8-tetraazahexacyclo[26.2.2.1^6,^9.1^10,^14.0^2,^7.0^15,^20]tetratriaconta-2,4,6(34),8,10(33), 11, 13, 15(20),16,18-decaen-3-yl]acetic acid], the EC50 was 6 nM.

As for `Cc1ccc2c(c1)O[C@@H](C)CCCCOC1(C)CCN(CC1)c1c([C@H](OC(C)(C)C)C(=O)O)c(C)nc3cc(nn13)-c1cccc-2c1` [Example 74, (2S)-2-(tert-Butoxy)-2-[(22S)-4,18,22,28-tetramethyl-21,27-dioxa-1,5,7,8-tetraazahexacyclo[26.2.2.1^6,^9.1^10,^14.0^2,^7.0^15,^20]tetratriaconta-2,4,6(34),8,10(33),11,13,15(20),16,18-decaen-3-yl]acetic acid], the EC50 is 36 nM.

With `Cc1cc2c(cc1C)-c1cccc(c1)-c1cc3nc(C)c([C@H](OC(C)(C)C)C(=O)O)c(n3n1)N1CCC(C)(CC1)OCC=CC[C@H](C)O2` [Example 75, (2S)-2-(tert-Butoxy)-2-[(22S)-4,17,18,22,28-pentamethyl-21,27-dioxa-1,5,7,8-tetraazahexacyclo[26.2.2.1^6,^9.1^10,^14.0^2,^7.0^15,^20]tetratriaconta-2,4,6(34),8,10(33), 11, 13, 15 (20),16,18,24-undecaen-3-yl]acetic acid], the EC50 was found to be 34 nM.

With `Cc1cc2c(cc1C)-c1cccc(c1)-c1cc3nc(C)c([C@H](OC(C)(C)C)C(=O)O)c(n3n1)N1CCC(C)(CC1)OCCCC[C@H](C)O2` [Example 76, (2S)-2-(tert-Butoxy)-2-[(22S)-4,17,18,22,28-pentamethyl-21,27-dioxa-1,5,7,8-tetraazahexacyclo[26.2.2.1^6,^9.1^10,^14.0^2,^7.0^15,^20]tetratriaconta-2,4,6(34),8,10(33),11,13,15(20),16,18-decaen-3-yl]acetic acid], the EC50 is 29 nM.

As to `Cc1cccc2c1-c1cccc(c1)-c1cc3nc(C)c([C@H](OC(C)(C)C)C(=O)O)c(n3n1)N1CCC(C)(CC1)OCCCC[C@H](C)O2` [Example 77, (2S)-2-(tert-Butoxy)-2-[(22S)-4,16,22,28-tetramethyl-21,27-dioxa-1,5,7,8-tetraazahexacyclo[26.2.2.1^6,^9.1^10,^14.0^2,^7.0^15,^20]tetratriaconta-2,4,6(34),8,10(33), 11, 13, 15(20),16,18-decaen-3-yl]acetic acid], the EC50 was 21 nM.

Turning to `Cc1cc2c(cc1F)O[C@@H](C)CC=CCOC1(C)CCN(CC1)c1c([C@H](OC(C)(C)C)C(=O)O)c(C)nc3cc(nn13)-c1cccc-2c1` [Example 78, (2S)-2-(tert-Butoxy)-2-[(22S)-18-fluoro-4,17,22,28-tetramethyl-21,27-dioxa-1,5,7,8-tetraazahexacyclo[26.2.2.1^6,^9.1^10,^14.0^2,^7.0^15,^20]tetratriaconta-2,4,6(34),8,10(33),11,13, 15(20), 16,18,24-undecaen-3-yl]acetic acid], the EC50 stood at 31 nM.

For the compound `Cc1cc2c(cc1F)O[C@@H](C)CCCCOC1(C)CCN(CC1)c1c([C@H](OC(C)(C)C)C(=O)O)c(C)nc3cc(nn13)-c1cccc-2c1` [Example 79, (2S)-2-(tert-Butoxy)-2-[(22S)-18-fluoro-4,17,22,28-tetramethyl-21,27-dioxa-1,5,7,8-tetraazahexacyclo[26.2.2.1^6,^9.1^10,^14.0^2,^7.0^15,^20]tetratriaconta-2,4,6(34),8,10(33),11,13,15(20),16,18-decaen-3-yl]acetic acid], the half-maximal effective concentration (EC50) turned out to be 38 nM.

In the case of `Cc1nc2cc3nn2c(c1[C@H](OC(C)(C)C)C(=O)O)N1CCC(C)(CC1)OCCCC[C@H](C)Oc1ccc(F)cc1-c1cccc-3c1` [Example 81, (2S)-2-(tert-Butoxy)-2-[(22S)-17-fluoro-4,22,28-trimethyl-21,27-dioxa-1,5,7,8-tetraazahexacyclo[26.2.2.1^6,^9.1^10,^14.0^2,^7.0^15,^20]tetratriaconta-2,4,6(34),8,10(33),11,13, 15(20),16,18-decaen-3-yl]acetic acid], the EC50 was found to be 13 nM.

As to `Cc1nc2cc3nn2c(c1[C@H](OC(C)(C)C)C(=O)O)N1CCC(C)(CC1)OCCCC[C@H](C)Oc1ccc(Cl)cc1-c1cccc-3c1` [Example 82, (2S)-2-(tert-Butoxy)-2-[(22S)-17-chloro-4,22,28-trimethyl-21,27-dioxa-1,5,7,8-tetraazahexacyclo[26.2.2.1^6,^9.1^10,^14.0^2,^7.0^15,^20]tetratriaconta-2,4,6(34),8,10(33), 11, 13, 15 (20),16,18-decaen-3-yl]acetic acid], the half-maximal effective concentration (EC50) turned out to be 20 nM.

As for `Cc1nc2cc3nn2c(c1[C@H](OC(C)(C)C)C(=O)O)N1CCC(C)(CC1)OCCCC[C@H](C)Oc1cc(F)ccc1-c1cccc-3c1` [Example 83, (2S)-2-(tert-Butoxy)-2-[(22S)-18-fluoro-4,22,28-trimethyl-21,27-dioxa-1,5,7,8-tetraazahexacyclo[26.2.2.1^6,^9.1^10,^14.0^2,^7.0^15,^20]tetratriaconta-2,4, 6(34), 8, 10(33), 11, 13, 15(20),16,18-decaen-3-yl]acetic acid], the EC50 amounted to 25 nM.

As to `Cc1nc2cc3nn2c(c1[C@H](OC(C)(C)C)C(=O)O)N1CCC(C)(CC1)OCCCC[C@H](C)Oc1cccc(F)c1-c1cccc-3c1` [Example 84, (2S)-2-(tert-Butoxy)-2-[(22S)-16-fluoro-4,22,28-trimethyl-21,27-dioxa-1,5,7,8-tetraazahexacyclo[26.2.2.1^6,^9.1^10,^14.0^2,^7.0^15,^20]tetratriaconta-2,4,6(34),8,10(33),11,13,15(20),16,18-decaen-3-yl]acetic acid], the EC50 was 12 nM.

`Cc1nc2cc3nn2c(c1[C@H](OC(C)(C)C)C(=O)O)N1CCC(C)(CC1)OCCCC[C@H](C)Oc1cccc(Cl)c1-c1cccc-3c1` [Example 85, (2S)-2-(tert-Butoxy)-2-[(22S)-16-chloro-4,22,28-trimethyl-21,27-dioxa-1,5,7,8-tetraazahexacyclo[26.2.2.1^6,^9.1^10,^14.0^2,^7.0^15,^20]tetratriaconta-2,4, 6(34), 8, 10(33), 11, 13, 15 (20),16,18-decaen-3-yl]acetic acid]: the EC50 turned out to be 21 nM.

As to `Cc1nc2cc3nn2c(c1[C@H](OC(C)(C)C)C(=O)O)N1CCC(C)(CC1)OCCCC[C@H](C)Oc1cc(Cl)ccc1-c1cccc-3c1` [Example 86, (2S)-2-(tert-Butoxy)-2-[(22S)-18-chloro-4,22,28-trimethyl-21,27-dioxa-1,5,7,8-tetraazahexacyclo[26.2.2.1^6,^9. 1^10,^14.0^2,^7.0^15,^20]tetratriaconta-2,4,6(34),8,10(33), 11, 13, 15 (20),16,18-decaen-3-yl]acetic acid], the EC50 came out at 52 nM.

Turning to `Cc1nc2cc3nn2c(c1[C@H](OC(C)(C)C)C(=O)O)N1CCC(C)(CC1)OCCCC[C@H](C)Oc1cc(C#N)ccc1-c1cccc-3c1` [Example 87, (2S)-2-(tert-Butoxy)-2-[(22S)-18-cyano-4,22,28-trimethyl-21,27-dioxa-1,5,7,8-tetraazahexacyclo[26.2.2.1^6,^9.1^10,^14.0^2,^7.0^15,^20]tetratriaconta-2,4,6(34),8,10(33), 11, 13, 15 (20),16,18-decaen-3-yl]acetic acid], the EC50 amounted to 9 nM.

As for `Cc1cc2c(cc1Cl)-c1cccc(c1)-c1cc3nc(C)c([C@H](OC(C)(C)C)C(=O)O)c(n3n1)N1CCC(C)(CC1)OCCCC[C@H](C)O2` [Example 88, (2S)-2-(tert-Butoxy)-2-[(22S)-17-chloro-4,18,22,28-tetramethyl-21,27-dioxa-1,5,7,8-tetraazahexacyclo[26.2.2.1^6,^9.1^10,^14.0^2,^7.0^15,^20]tetratriaconta-2,4, 6(34), 8, 10(33), 11, 13, 15 (20),16,18-decaen-3-yl]acetic acid], the EC50 came to 86 nM.

As to `Cc1nc2cc3nn2c(c1[C@H](OC(C)(C)C)C(=O)O)N1CCC(C)(CC1)OCCCC[C@H](C)Oc1ccc(Cl)c(C)c1-c1cccc-3c1` [Example 89, (2S)-2-(tert-Butoxy)-2-[(22S)-17-chloro-4,16,22,28-tetramethyl-21,27-dioxa-1,5,7,8-tetraazahexacyclo[26.2.2.1^6,^9.1^10,^14.0^2,^7.0^15,^20]tetratriaconta-2,4, 6(34), 8, 10(33), 11, 13, 15(20),16,18-decaen-3-yl]acetic acid], the EC50 amounted to 110 nM.
